Laboratory results from ChEMBL document CHEMBL3758109, “A novel triazole derivative of betulinic acid induces extrinsic and intrinsic apoptosis in human leukemia HL-60 cells” (Eur J Med Chem, 2016).

Tests used:
A549 [1] = experiment: Cytotoxicity against human A549 cells assessed as cell growth inhibition at 10 uM after 48 hrs by MTT assay; type: functional; details: A549, 48 h, read-out: GI
A549 [2] = experiment: Cytotoxicity against human A549 cells assessed as cell growth inhibition after 48 hrs by MTT assay; type: functional, cell-based; details: A549, 48 h
[3] = Cytotoxicity against human PC3 cells assessed as cell growth inhibition at 10 uM after 48 hrs by MTT assay; type: functional; details: PC-3, 48 h, read-out: GI
[4] = Cytotoxicity against human HL60 cells assessed as cell growth inhibition at 10 uM after 48 hrs by MTT assay; type: functional; details: HL-60, 48 h, read-out: GI
[5] = Cytotoxicity against human PC3 cells assessed as cell growth inhibition after 48 hrs by MTT assay; type: functional, cell-based; details: PC-3, 48 h
[6] = Cytotoxicity against human HL60 cells assessed as cell growth inhibition after 48 hrs by MTT assay; type: functional, cell-based; details: HL-60, 48 h
[7] = Cytotoxicity against human MIAPaCa2 cells assessed as cell growth inhibition after 48 hrs by MTT assay; type: functional, cell-based; details: MIA PaCa-2, 48 h
[8] = Cytotoxicity against human MIAPaCa2 cells assessed as cell growth inhibition at 10 uM after 48 hrs by MTT assay; type: functional; details: MIA PaCa-2, 48 h, read-out: GI

Compound | inhibition of growth at 10 µM (A549 [1]) | IC50 (A549 [2]) | inhibition of growth at 10 µM [3] | inhibition of growth at 10 µM [4] | IC50 [5] | IC50 [6] | IC50 [7] | inhibition of growth at 10 µM [8]
C=C(C)[C@@H]1CC[C@]2(C(=O)OCc3cn(-c4cccnc4Cl)nn3)CC[C@]3(C)[C@H](CC[C@@H]4[C@@]5(C)CC[C@H](O)C(C)(C)[C@@H]5CC[C@]43C)[C@@H]12 | 40% | 50 µM | 30% | 46% | 69 µM | 18 µM | 8 µM | 55%
C=C(C)[C@@H]1CC[C@]2(C(=O)OCc3cn(-c4ccccc4)nn3)CC[C@]3(C)[C@H](CC[C@@H]4[C@@]5(C)CC[C@H](O)C(C)(C)[C@@H]5CC[C@]43C)[C@@H]12 | 27% | 18 µM | 25% | 11% | 18 µM | 27 µM | 18 µM | 39%
C=C(C)[C@@H]1CC[C@]2(C(=O)OCc3cn(-c4cc(F)c(F)cc4Br)nn3)CC[C@]3(C)[C@H](CC[C@@H]4[C@@]5(C)CC[C@H](O)C(C)(C)[C@@H]5CC[C@]43C)[C@@H]12 | 10% | 100 µM | 17% | 48% | 100 µM | 12 µM | 27 µM | 36%
C=C(C)[C@@H]1CC[C@]2(C(=O)OCc3cn(-c4ccc5cc(OC)ccc5c4)nn3)CC[C@]3(C)[C@H](CC[C@@H]4[C@@]5(C)CC[C@H](O)C(C)(C)[C@@H]5CC[C@]43C)[C@@H]12 | 22% | > 100 µM | 33% | 35% | 31 µM | 29 µM | > 100 µM | 12%
C=C(C)[C@@H]1CC[C@]2(C(=O)OCc3cn(-c4ccc(OC)c(OC)c4)nn3)CC[C@]3(C)[C@H](CC[C@@H]4[C@@]5(C)CC[C@H](O)C(C)(C)[C@@H]5CC[C@]43C)[C@@H]12 | 6% | 16 µM | 8% | 7% | 11 µM | 8 µM | 21 µM | 8%
C=C(C)[C@@H]1CC[C@]2(C(=O)OCc3cn(-c4ccc(OC)cc4)nn3)CC[C@]3(C)[C@H](CC[C@@H]4[C@@]5(C)CC[C@H](O)C(C)(C)[C@@H]5CC[C@]43C)[C@@H]12 | 13% | > 100 µM | 2% | 8% | > 100 µM | 30 µM | 22 µM | 36%
C=C(C)[C@@H]1CC[C@]2(C(=O)OCc3cn(-c4ccccc4I)nn3)CC[C@]3(C)[C@H](CC[C@@H]4[C@@]5(C)CC[C@H](O)C(C)(C)[C@@H]5CC[C@]43C)[C@@H]12 | 40% | > 100 µM | 29% | 38% | > 100 µM | 27 µM | 8 µM | 53%
C=C(C)[C@@H]1CC[C@]2(C(=O)OCc3cn(-c4ccc(C#N)cc4)nn3)CC[C@]3(C)[C@H](CC[C@@H]4[C@@]5(C)CC[C@H](O)C(C)(C)[C@@H]5CC[C@]43C)[C@@H]12 | 63% | 7 µM | 46% | 55% | 12 µM | 8 µM | 8 µM | 57%
C=C(C)[C@@H]1CC[C@]2(C(=O)O)CC[C@]3(C)[C@H](CC[C@@H]4[C@@]5(C)CC[C@H](O)C(C)(C)[C@@H]5CC[C@]43C)[C@@H]12 [BETULINIC ACID] | 68% | 8 µM | 70% | 69% | 7 µM | 8 µM | 7 µM | 70%
C=C(C)[C@@H]1CC[C@]2(C(=O)OCc3cn(-c4ccccc4OC)nn3)CC[C@]3(C)[C@H](CC[C@@H]4[C@@]5(C)CC[C@H](O)C(C)(C)[C@@H]5CC[C@]43C)[C@@H]12 | 12% | > 100 µM | 3% | 34% | > 100 µM | 29 µM | 9 µM | 50%
C=C(C)[C@@H]1CC[C@]2(C(=O)OCc3cn(-c4ccc(C=O)cc4)nn3)CC[C@]3(C)[C@H](CC[C@@H]4[C@@]5(C)CC[C@H](O)C(C)(C)[C@@H]5CC[C@]43C)[C@@H]12 | 4% |  | 9% | 21% |  |  |  | 7%
C=C(C)[C@@H]1CC[C@]2(C(=O)OCc3cn(-c4cccc5c(O)cccc45)nn3)CC[C@]3(C)[C@H](CC[C@@H]4[C@@]5(C)CC[C@H](O)C(C)(C)[C@@H]5CC[C@]43C)[C@@H]12 | 7% |  | 5% | 26% |  |  |  | 3%
C=C(C)[C@@H]1CC[C@]2(C(=O)OCc3cn(-c4ccc(Br)cc4)nn3)CC[C@]3(C)[C@H](CC[C@@H]4[C@@]5(C)CC[C@H](O)C(C)(C)[C@@H]5CC[C@]43C)[C@@H]12 | 54% | 8 µM | 45% | 39% | 25 µM | 25 µM | 7 µM | 61%
C=C(C)[C@@H]1CC[C@]2(C(=O)OCc3cn(-c4ccccc4C#N)nn3)CC[C@]3(C)[C@H](CC[C@@H]4[C@@]5(C)CC[C@H](O)C(C)(C)[C@@H]5CC[C@]43C)[C@@H]12 | 9% |  | 6% | 22% |  |  |  | 4%
C=C(C)[C@@H]1CC[C@]2(C(=O)OCc3cn(-c4ccc5c(c4)OCO5)nn3)CC[C@]3(C)[C@H](CC[C@@H]4[C@@]5(C)CC[C@H](O)C(C)(C)[C@@H]5CC[C@]43C)[C@@H]12 | 53% | 8 µM | 49% | 53% | 9 µM | 8 µM | 8 µM | 56%
C=C(C)[C@@H]1CC[C@]2(C(=O)OCc3cn(-c4c(F)ccc(OC)c4Br)nn3)CC[C@]3(C)[C@H](CC[C@@H]4[C@@]5(C)CC[C@H](O)C(C)(C)[C@@H]5CC[C@]43C)[C@@H]12 | 7% |  | 5% | 12% |  |  |  | 7%
C=C(C)[C@@H]1CC[C@]2(C(=O)OCc3cn(-c4cccc(OC)c4OC)nn3)CC[C@]3(C)[C@H](CC[C@@H]4[C@@]5(C)CC[C@H](O)C(C)(C)[C@@H]5CC[C@]43C)[C@@H]12 | 48% |  | 49% | 58% |  |  |  | 30%
C=C(C)[C@@H]1CC[C@]2(C(=O)OCc3cn(-c4cccc(OC)c4)nn3)CC[C@]3(C)[C@H](CC[C@@H]4[C@@]5(C)CC[C@H](O)C(C)(C)[C@@H]5CC[C@]43C)[C@@H]12 | 10% | 25 µM | 10% | 5% | 25 µM | 25 µM | 22 µM | 28%
C=C(C)[C@@H]1CC[C@]2(C(=O)OCc3cn(-c4cccc([N+](=O)[O-])c4)nn3)CC[C@]3(C)[C@H](CC[C@@H]4[C@@]5(C)CC[C@H](O)C(C)(C)[C@@H]5CC[C@]43C)[C@@H]12 | 8% |  | 10% | 21% |  |  |  | 9%
C=C(C)[C@@H]1CC[C@]2(C(=O)OCc3cn(-c4ccc(OCCC)c(Cl)c4)nn3)CC[C@]3(C)[C@H](CC[C@@H]4[C@@]5(C)CC[C@H](O)C(C)(C)[C@@H]5CC[C@]43C)[C@@H]12 | 1% |  | 7% | 23% |  |  |  | 3%
C=C(C)[C@@H]1CC[C@]2(C(=O)OCc3cn(/C=C/c4ccccc4)nn3)CC[C@]3(C)[C@H](CC[C@@H]4[C@@]5(C)CC[C@H](O)C(C)(C)[C@@H]5CC[C@]43C)[C@@H]12 | 47% |  | 8% | 20% |  |  |  | 35%
C=C(C)[C@@H]1CC[C@]2(C(=O)OCc3cn(-c4ccc5oc6ccccc6c5c4)nn3)CC[C@]3(C)[C@H](CC[C@@H]4[C@@]5(C)CC[C@H](O)C(C)(C)[C@@H]5CC[C@]43C)[C@@H]12 | 5% |  | 4% | 14% |  |  |  | 7%
